Experimental findings from US20120108585A1, “BENZOXAZOLES, BENZTHIAZOLES AND RELATED ANALOGS AS SIRTUIN MODULATORS” (Sirtris Pharmaceuticals, Inc., priority 2008, published 2012) are described below.

Molecules are shown by their SMILES. Bounds are passed on as bounds.

This assay addresses T1, SIRT1 (Homo sapiens, UniProt Q96EB6).
T1 sequence (Q96EB6 1-747): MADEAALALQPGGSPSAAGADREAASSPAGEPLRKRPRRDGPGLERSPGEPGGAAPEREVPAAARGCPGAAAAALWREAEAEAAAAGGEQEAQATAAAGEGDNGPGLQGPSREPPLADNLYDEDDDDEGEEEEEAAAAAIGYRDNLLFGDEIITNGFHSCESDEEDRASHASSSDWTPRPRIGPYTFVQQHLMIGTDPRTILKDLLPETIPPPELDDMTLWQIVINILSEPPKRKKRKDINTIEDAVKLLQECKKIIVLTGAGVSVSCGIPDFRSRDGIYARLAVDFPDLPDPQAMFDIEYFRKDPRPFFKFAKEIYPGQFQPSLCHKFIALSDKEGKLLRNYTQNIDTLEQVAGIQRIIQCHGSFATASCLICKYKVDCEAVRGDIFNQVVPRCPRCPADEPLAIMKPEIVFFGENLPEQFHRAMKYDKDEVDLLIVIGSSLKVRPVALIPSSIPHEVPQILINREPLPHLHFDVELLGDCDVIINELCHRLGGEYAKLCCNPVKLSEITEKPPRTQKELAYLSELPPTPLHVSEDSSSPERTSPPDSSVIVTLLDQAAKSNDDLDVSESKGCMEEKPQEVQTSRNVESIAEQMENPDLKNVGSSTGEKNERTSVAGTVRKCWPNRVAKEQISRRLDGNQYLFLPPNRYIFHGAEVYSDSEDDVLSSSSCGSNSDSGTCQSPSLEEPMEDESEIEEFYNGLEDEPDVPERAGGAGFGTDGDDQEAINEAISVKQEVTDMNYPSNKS
Kind of assay: mass spectrometry based assay to identify modulators of SIRT1 activity (deacetylation of p53-based acetylated peptide). Type of assay: biochemical. As to conditions: SIRT1 activation, 10 nM SIRT1, 0.5 μM peptide substrate, 120 μM βNAD+, 25 minutes at 25° C.; for Emax: 25 min, read-out: % Fold Act. (percent maximum fold activation). An excerpt: A mass spectrometry based assay was used to identify modulators of SIRT1 activity. The mass spectrometry based assay utilizes a peptide having 20 amino acid residues as follows: Ac-EE-K(biotin)-GQSTSSHSK(Ac)NleSTEG-K(5TMR)-EE-NH2 (SEQ ID NO: 1) wherein K(Ac) is an acetylated lysine residue and Nle is a norleucine. The peptide is labeled with the fluorophore 5TMR (excitation 540 nm/emission 580 nm) at the C-terminus. The sequence of the peptide substrate is based on p53 with several modifications. In addition, the methionine residue naturally present in the sequence was replaced with the norleucine because the methionine may be susceptible to oxidation during synthesis and purification.
The mass spectrometry assay is conducted as follows: 0.5 μM peptide substrate and 120 μM βNAD^+ is incubated with 10 nM SIRT1 for 25 minutes at 25° C. in a reaction buffer (50 mM Tris-acetate pH 8, 137 mM NaCl, 2.7 mM KCl, 1 mM MgCl2, 5 mM DTT, 0.05% BSA). Test compounds may be added to the reaction as described above. The SirT1 gene is cloned into a T7-promoter containing vector and transformed into BL21(DE3). After the 25 minute incubation with SIRT1, 10 μL of 10% formic acid is added to stop the reaction. Reactions are sealed and frozen for later mass spec analysis. Determination of the mass of the substrate peptide allows for precise determination of the degree of acetylation (i.e. starting material) as compared to deacetylated peptide (product).
A control for inhibition of sirtuin activity is conducted by adding 1 μL of 500 mM nicotinamide as a negative control at the start of the reaction (e.g., permits determination of maximum sirtuin inhibition). A control for activation of sirtuin activity is conducted using 10 nM of sirtuin protein, with 1 μL of DMSO in place of compound, to determine the amount of deacetylation of the substrate at a given timepoint within the linear range of the assay. This timepoint is the same as that used for test compounds and, within the linear range, the endpoint represents a change in velocity.
For the above assay, SIRT1 protein was expressed and purified as follows. The SirT1 gene was cloned into a T7-promoter containing vector and transformed into BL21(DE3). The protein was expressed by induction with 1 mM IPTG as an N-terminal His-tag fusion protein at 18° C. overnight and harvested at 30,000×g. Cells were lysed with lysozyme in lysis buffer (50 mM Tris-HCl, 2 mM Tris[2-carboxyethyl]phosphine (TCEP), 10 μM ZnCl2, 200 mM NaCl) and further treated with sonication for 10 min for complete lysis. The protein was purified over a Ni-NTA column (Amersham) and fractions containing pure protein were pooled, concentrated and run over a sizing column (Sephadex S200 26/60 global). The peak containing soluble protein was collected and run on an Ion-exchange column (MonoQ). Gradient elution (200 mM-500 mM NaCl) yielded pure protein. This protein was concentrated and dialyzed against dialysis buffer (20 mM Tris-HCl, 2 mM TCEP) overnight. The protein was aliquoted and frozen at −80° C. until further use.
Sirtuin modulating compounds that activated SIRT1 were identified using the assay described above and are shown below in Table 1. The EC1-5 values for the activating compounds are represented by A (EC1-5<1.0 uM), B (EC1-5 1-25 uM), C (EC1-5>25 uM). The percent maximum fold activation is represented by A (Fold activation>150%) or B (Fold Activation<150%).

For `O=C(Nc1nc(CN2CCOCC2)cs1)c1cccc2nc(-c3cc(F)ccc3C(F)(F)F)oc12` [Compound 135], the Emax is greater than 150% and the EC1.5 result is on record as “B (EC1-5 1-25 uM)”.
Regarding `O=C(Nc1cccc(CN2CCOCC2)n1)c1cccc2nc(-c3cc(F)ccc3C(F)(F)F)oc12` [Compound 136], the Emax was greater than 150% and the EC1.5 entry is “B (EC1-5 1-25 uM)”.
The corresponding values for `O=C(Nc1nccs1)c1cccc2oc(-c3ccccc3C(F)(F)F)nc12` [Compound 137, N-(thiazol-2-yl)-2-(2-(trifluoromethyl)phenyl)benzo[d]oxazole-4-carboxamide] are greater than 150% and “B (EC1-5 1-25 uM)”.
Turning to `O=C(Nc1ccccn1)c1cccc2oc(-c3ccccc3C(F)(F)F)nc12` [Compound 138], the Emax was greater than 150% and the EC1.5 result is on record as “B (EC1-5 1-25 uM)”.
On to `O=C(Nc1nc(CN2CCOCC2)cs1)c1cccc2oc(-c3ccccc3C(F)(F)F)nc12` [Compound 139], for which the Emax was greater than 150% and the EC1.5 entry was “A (EC1-5<1.0 uM)”.
As to `O=C(Nc1cccc(CN2CCOCC2)n1)c1cccc2oc(-c3ccccc3C(F)(F)F)nc12` [Compound 140], the Emax was greater than 150% and the EC1.5 result was “A (EC1-5<1.0 uM)”.
Consider `O=C(Nc1nccs1)c1cccc2oc(-c3ccccc3OC(F)(F)F)nc12` [Compound 141], for which the Emax is greater than 150% and the EC1.5 entry is recorded as “B (EC1-5 1-25 uM)”.
For the molecule `O=C(Nc1ccccn1)c1cccc2oc(-c3ccccc3OC(F)(F)F)nc12` [Compound 142], the Emax was greater than 150% and the EC1.5 entry was “B (EC1-5 1-25 uM)”.
The corresponding values for `O=C(Nc1nccs1)c1cccc2oc(-c3ccc(F)cc3C(F)(F)F)nc12` [Compound 143] are less than 150% and “B (EC1-5 1-25 uM)”.
Turning to `O=C(Nc1ccccn1)c1cccc2oc(-c3ccc(F)cc3C(F)(F)F)nc12` [Compound 144], the Emax was less than 150% and the EC1.5 entry is “B (EC1-5 1-25 uM)”.
The corresponding values for `O=C(Nc1nc(CN2CCOCC2)cs1)c1cccc2oc(-c3ccc(F)cc3C(F)(F)F)nc12` [Compound 145] are greater than 150% and “B (EC1-5 1-25 uM)”.
Take `O=C(Nc1cccc(CN2CCOCC2)n1)c1cccc2oc(-c3ccc(F)cc3C(F)(F)F)nc12` [Compound 146]: the Emax was greater than 150% and the EC1.5 entry is listed as “A (EC1-5<1.0 uM)”.
On to `O=C(Nc1nccs1)c1cccc2oc(-c3cc(F)ccc3C(F)(F)F)nc12` [Compound 147], for which the Emax is less than 150% and the EC1.5 result is given as “C (EC1-5>25 uM)”.
Consider `O=C(Nc1ccccn1)c1cccc2oc(-c3cc(F)ccc3C(F)(F)F)nc12` [Compound 148], for which the Emax is less than 150% and the EC1.5 entry was “C (EC1-5>25 uM)”.
The corresponding values for `O=C(Nc1nc(CN2CCOCC2)cs1)c1cccc2oc(-c3cc(F)ccc3C(F)(F)F)nc12` [Compound 149] are greater than 150% and “A (EC1-5<1.0 uM)”.
Regarding `O=C(Nc1cccc(CN2CCOCC2)n1)c1cccc2oc(-c3cc(F)ccc3C(F)(F)F)nc12` [Compound 150], the Emax was greater than 150% and the EC1.5 entry was “A (EC1-5<1.0 uM)”.
Regarding `O=C(Nc1cccc(N2CCOCC2)n1)c1cccc2sc(-c3cccc(C(F)(F)F)c3)nc12` [Compound 151], the Emax was less than 150% and the EC1.5 result was “A (EC1-5<1.0 uM)”.
Take `O=C(Nc1cccc(N2CCCC2)n1)c1cccc2sc(-c3cccc(C(F)(F)F)c3)nc12` [Compound 153]: the Emax is greater than 150% and the EC1.5 result is “B (EC1-5 1-25 uM)”.
With `O=C(Nc1ccnc(N2CCCC2)c1)c1cccc2sc(-c3cccc(C(F)(F)F)c3)nc12` [Compound 154], the Emax is greater than 150% and the EC1.5 result is given as “A (EC1-5<1.0 uM)”.
